Measurements from BindingDB's records for doi:10.1073/pnas.0708800104 (University of Oxford, 2007).
Blank lines part the entries; values can stand above or below the molecule they belong to.

Key:
[1] = Inhibition of IGF1R-dependent tumor cell growth in human MCF7 cells
[2] = biological target: Proto-oncogene tyrosine-protein kinase Src (Homo sapiens) (UniProt P12931); assay: Inhibition of cSrc
Proto-oncogene tyrosine-protein kinase Src (Homo sapiens), sequence (P12931 whole entry, looked up): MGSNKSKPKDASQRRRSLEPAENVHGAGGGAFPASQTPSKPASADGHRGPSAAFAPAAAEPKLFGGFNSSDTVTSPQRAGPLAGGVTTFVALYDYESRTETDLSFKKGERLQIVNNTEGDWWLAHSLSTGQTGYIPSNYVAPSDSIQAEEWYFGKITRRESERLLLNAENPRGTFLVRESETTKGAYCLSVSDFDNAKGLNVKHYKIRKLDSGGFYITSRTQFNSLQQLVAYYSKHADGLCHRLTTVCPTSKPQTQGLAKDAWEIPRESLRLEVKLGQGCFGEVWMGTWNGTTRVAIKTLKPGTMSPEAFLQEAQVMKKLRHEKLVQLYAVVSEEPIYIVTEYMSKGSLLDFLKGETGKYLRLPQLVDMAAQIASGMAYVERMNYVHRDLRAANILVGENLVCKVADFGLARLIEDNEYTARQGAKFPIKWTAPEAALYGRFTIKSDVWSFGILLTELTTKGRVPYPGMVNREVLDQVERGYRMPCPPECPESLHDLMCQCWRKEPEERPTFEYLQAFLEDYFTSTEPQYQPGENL

IC50 [1]: 8 µM
SMILES: COc1ccc(Cl)cc1NC(=O)Nc1cc(C)nc2ccccc12 [TCMDC-125497]

IC50 [2]: 19.8 µM
SMILES: CCN(CC)CCCCNc1ncc2cc(-c3cc(OC)cc(OC)c3)c(NC(=O)NC(C)(C)C)nc2n1

IC50 (Inhibition of Cdk5): 25 µM
SMILES: O=C1Nc2ccccc2/C1=C\c1c(Cl)[nH]c2ccccc12
